Measured values reported in patent US20220324796A1, “ANTIBIOTIC COMPOUNDS” (The General Hospital Corporation, priority 2019, published 2022).
Values after ≈ are worked out from the molar mass of the structure shown.

Legend:
[1] = tested on: daptomycin-intermediate or-resistant Enterococcal strains; test: MIC assay, Enterococcal strains; assay type: cell-based; conditions: Enterococcus; range over several daptomycin-intermediate or -resistant Enterococcal strains
Protocol: Bacterial strains and growth conditions. S. aureus strains were grown in tryptic soy broth (TSB) (BD, Franklin Lakes, N.J., USA). E. faecium and E. faecalis strains were grown in brain-heart infusion (BHI) broth (BD, Franklin Lakes, N.J., USA), and four Gram-negative species, Klebsiella pneumoniae, Acinetobacter baumannii, Pseudomonas aeruginosa, and Enterobacter aerogenes were grown in Luria Bertani (LB) broth (BD, Franklin Lakes, N.J., USA). All bacteria were grown at 37° C. at 200 r.p.m.
Minimal inhibitory concentration (MIC) assay. The MICs of antibiotics were determined by the standard micro-dilution method recommended by the Clinical and Laboratory Standards Institute. MIC assays were conducted in biological triplicate.

S. aureus MW2 = test: Membrane fluidity assay (Laurdan GP); assay type: cell-based; conditions: 1 h
Protocol: Membrane fluidity assay. Bacterial membrane fluidity was estimated by slightly modifying previously described methods. An overnight culture of S. aureus MW2 was diluted 1:1,000 in 25 mL TSB. The diluted culture was grown to OD600˜1.5 at 37° C. with shaking at 200 rpm, followed by 10 min incubation with 10 μM Laurdan at room temperature in the dark (Sigma-Aldrich, Cat # 40227). The stained cell culture was washed with PBS 4 times and concentrated 2 times. 100 μL of the 2-fold concentrated culture was mixed with 100 μL of phosphate buffered saline (PBS) containing twice the desired concentrations of compounds in black, clear-bottom, 96-well plates (Corning no. 3904). After 1 h incubation at room temperature in the dark, the Laurdan fluorescence intensities were measured using a spectrophotometer (SpectraMax M2, Molecular Devices) with emission wavelengths of 435 nm and 490 nm upon excitation at 350 nm. The Laurdan GP was calculated using the formula GP=(I435−I490)/(I435+I490). All experiments were conducted in biological triplicate.

[2] = tested on: VRSA strain VRS1 persisters; test: Persister killing assay; assay type: cell-based, S. aureus; conditions: linezolid and daptomycin at 100× MIC; bithionol at indicated concentrations (FIG. 1E)
Protocol: (§1) Persister killing assay. […] Persister cells of MRSA MW2 or VRSA VRS1 were prepared by growing cultures overnight to stationary phase at 37° C. at 200 rpm and washing three times with PBS. 1 mL of ˜1×10^8 CFU/mL MRSA persisters was added to 1 mL of PBS containing a 2-fold higher concentration of the desired concentration of antibiotics in a 96-well assay block (Corning Costar 3960). For assays with daptomycin, PBS was supplemented with 50 μg/mL CaCl2. The assay block was incubated at 37° C. with shaking at 200 rpm. At various times, 400 μl samples were removed, washed once with PBS, serially diluted and spot-plated on TSA plates. Colonies were counted after overnight incubation at 37° C. to determine the titer of live cells. These experiments were conducted in triplicate.

[3] = tested on: stationary-phase MRSA MW2 persisters; test: Persister killing assay; assay type: cell-based, S. aureus
Protocol: as §1

human erythrocytes = conditions: 1 h
[4] = tested on: MRSA strain MW2 persisters; test: Deep-seated mouse thigh infection model, bacterial load; assay type: in vivo; conditions: 30 mg/kg each agent, every 12 h for 3 days from 24 h post-infection
Protocol: Deep-seated mouse thigh infection model. […] Mice were euthanized at 96 h post-infection. […] Thighs were homogenized in PBS, serially diluted with PBS, and spot-plated on TSA plates.

[5] = tested on: Gram-negative bacteria including Escherichia coli and Shigella dysenteriae; conditions: previously described; cited from earlier work
MRSA MW2 cells = test: Bacterial membrane permeability assay (SYTOX Green); assay type: cell-based, S. aureus
Protocol: Bacterial membrane permeability assay. Exponential-phase or stationary-phase S. aureus MW2 cells prepared as described above under Killing kinetics assay and Persister killing assay, respectively, were washed 3 times with the same volume of PBS. The washed cells were adjusted to OD600=0.4 with PBS. SYTOX Green (Molecular Probes, Waltham, Mass., USA) was added to 10 mL of the diluted bacterial suspension to a final concentration of 5 μM and incubated for 30 min at room temperature in the dark. 50 μl of the bacterial/SYTOX Green suspension was mixed with 50 μl of phosphate buffered saline (PBS) containing twice the desired concentrations of compounds in black, clear-bottom, 96-well plates (Corning no. 3904). Fluorescence was measured at room temperature using a spectrophotometer (SpectraMax M2, Molecular Devices) with excitation and emission wavelengths of 485 nm and 525 nm, respectively. All experiments were conducted in biological triplicate.

[6] = tested on: exponential-phase S. aureus MW2; test: Killing kinetics assay; assay type: cell-based
Protocol: Killing kinetics assay. An overnight culture of S. aureus MW2 ^−was diluted in 25 mL TSB to a concentration of ˜10^5 CFU/mL. The diluted culture was grown to exponential-phase (˜2×10^7 CFU/mL) at 37° C. with shaking at 200 rpm. 1 mL of the exponential-phase culture was added to each well of a 96-well assay block (Corning Costar 3960) containing 1 mL of 2× of the desired concentrations of antibiotics dissolved in pre-warmed TSB at 37° C. The assay block was then incubated at 37° C. with shaking at 200 rpm. At every hour, 400 μl cultures were removed, washed once with PBS, serially diluted and spot-plated onto tryptic soy agar (TSA, BD) plates. The plates were incubated at 37° C. overnight, and colonies were counted to determine the titer of the cultures. These experiments were conducted in biological triplicate.

SMILES: Oc1c(Cl)cc(Cl)cc1Sc1cc(Cl)cc(Cl)c1O [bithionol, 6,6′-thio-bis-(2,4-dichlorophenol)]
- MIC [1]: 0.5 to 2 µg/mL (≈ 1.4 to 5.62 µM)
- concentrations inducing a significant decrease in Laurdan GP (S. aureus MW2): over 8 μg/mL
- activity against VRSA VRS1 persisters [2]: highly efficacious at eradicating
- time to complete eradication of stationary-phase MRSA persisters ([3]; 32 μg/mL (32× MIC)): ≤ 2 h
- concentration required to completely eradicate stationary-phase MRSA persisters ([3]; 5×10^7 CFU/mL MRSA MW2 persisters): 32 µg/mL
- concentrations exhibiting significant killing activity against MRSA MW2 persisters ([3]; FIG. 1C): > 16 µg/mL
- viability of MRSA persisters ([3]; bithionol 8 μg/mL alone (FIGS. 1C, D)): do not lead to a significant decrease in the viability
- HC50 (human erythrocytes): > 64 µg/mL
- effect on MRSA CFUs in the mouse thigh [4]: no effect
- MIC [5]: > 100 µg/mL
- SYTOX Green membrane permeabilization (MRSA MW2 cells; MRSA MW2 exponential-phase cells and/or persisters, in words): dose-dependent membrane permeability
- concentration at which SYTOX Green fluorescence intensity was maximized (MRSA MW2 cells; decreased above 8 μg/mL): 4 µg/mL
- time to eradicate ~10^7 CFU/mL exponential-phase S. aureus MW2 ([6]; 10 μg/mL (10× MIC)): ≤ 3 h
- rate of killing ([6]; 10× MIC, compared with daptomycin and vancomycin): comparable to daptomycin (at 10× MIC) but significantly faster than the killing kinetics of vancomycin
